Data as given in patent publication USRE42890E1, “Furazanobenzimidazoles” (Basilea Pharmaceutica AG, priority 2003, dated 2011).
Read-outs that look alike come from different tables or passages of the source.

Legend:
Jurkat = assay: MTS proliferation assay, Jurkat; type: cell-based, human; conditions: 72 h incubation, read-out: MTS proliferation assay IC 50 Jurkat
Experimental: (§1) Cell lines are cultured in RPMI-1640 tissue culture medium containing either 5% or 10% fetal calf serum, 0.05 mM 2-mercaptoethanol, 2 mM glutamine and penicillin/streptomycin 50 μg/ml (complete medium) (Sigma, Buchs, Switzerland). General growth conditions are 37° C. and 7.5% CO2.
(§2) The following human cell lines (either EGFP transfected or not) are being used: HeLa (ATCC: CCL-2), KB (ATCC: CCL-17), MCF7 (ATCC: HTB-22), SK-BR-3 (ATCC: HTB-30), SK-Mel 1 (ATCC: HTB-67), SK-Mel 28 (ATCC: HTB-72), PC-3 (ATCC: CRL-1435), SW 480 (ATCC: CCL-228), NCl-H460 (ATCC: HTB-177), NCl-H1792 (ATCC: CRL-5895), HT1080 (ATCC: CCL-21), Jurkat (ATCC: TIB-152), Ramos (ATCC: CRL-1596), Raji (ATCC: CCL-86), H9 (ATCC: HTB-176), Hut78 (ATCC: TIB-161), K562 (ATCC: CCL 243), HL-60 (ATCC: CCL 240), U-87MG (ATCC: HTB-14), HepG2 (ATCC: HB-8065), U-2 OS (ATCC: HTB-96), Saos-2 (ATCC: HTB-85), U937 (ATCC: CRL 1593), Hs 578T (ATCC: HTB 126), HBL-100 (ATCC: HTB 124), Molt-4 (ATCC: CRL 1582).
(§3) The assay is performed in 96 well tissue culture plates. The cells (range: 1.5*10^3-10^4) are seeded out in 80 μl complete medium 24 h prior to compound treatment. The test compounds are added in 20 μl complete medium containing max 5% DMSO. The final compound concentrations in the assays are 10 μM, 3 μM, 1 μM and 0.3 μM, respectively. The assay plates are incubated for 72 h at culture conditions. The MTS reagent is prepared according to the manufacturer's protocol (Promega G1111). 20 μl MTS reagent are added to each well, the assay plates are quickly spun and incubated for another 3 h at culture conditions. Subsequently, the plates are shortly shaked and absorption measured with a microplate-reader at 492 nm.

MRC5 = assay: MTS proliferation assay, MRC5; type: cell-based; conditions: MRC5, 72 h incubation, read-out: MTS proliferation assay IC 50 MRC5
Experimental: as §1, §3

HeLa = assay: MTS proliferation assay, HeLa; type: cell-based, human; conditions: 72 h incubation, read-out: MTS proliferation assay IC 50 HeLa
Experimental: as §1, §2, §3

[1] = tested on: adherent cells or suspension cells; assay: Hoechst 33342 nuclear staining (fraction of apoptotic nuclei); type: cell-based; design: key: 0 relating to no activity; 1 relating to weak activity comprising less than 70% of the cells; score 2 relating to strong activity comprising more than 70% of the cells
Experimental: as §1
This assay is performed in 96 well tissue culture plates. Appropriate number of cells (adherent cells: 3-5*10^3, suspension cells: 8-10*10^3) are being seeded out in 80 μl complete medium. Adherent cells are incubated for 24 h for proper spreading out before addition of test compounds while suspension cells are immediately treated with test compounds after seeding out. The test compounds are added in 20 μl complete medium containing max 5% DMSO. […] After 24 h or 48 h incubation at culture conditions, 10 μl medium containing Hoechst 33342 dye (Sigma B-2261) at 2-5 μg/ml are added to each well. The assay plates are then further incubated for 30 minutes and subsequently analyzed with a standard inverted fluorescence microscope.
The readout allows the determination of the fraction of apoptotic nuclei as well as other morphological criteria specific for apoptosis as a function of the treatment. The following scores are used: 0 relating to no activity, 1 relating to weak activity comprising less than 70% of the cells and score 2 relating to strong activity comprising more than 70% of the cells.

What does the source list for `Nc1nonc1-c1nc2ccccc2n1CC(=O)c1ccccc1` [Example 1, 4-(1-Phenacyl-1H-benzimidazol-2-yl)-furazan-3-ylamine]?
IC50 (Jurkat; Homo sapiens): 10 to 100 nM; IC50 (MRC5; Homo sapiens): > 1000 nM; IC50 (HeLa; Homo sapiens): 100 to 1000 nM; Hoechst 33342 nuclear staining score ([1]; H460, conc 0.01 μm): 0; Hoechst 33342 nuclear staining score ([1]; H460, conc 0.1 μm): 0; Hoechst 33342 nuclear staining score ([1]; H460, conc 1 μm): 2 (score 2 relating to strong activity comprising more than 70% of the cells); Hoechst 33342 nuclear staining score ([1]; HeLa, conc 0.01 μm): 0; Hoechst 33342 nuclear staining score ([1]; HeLa, conc 0.1 μm): 0; Hoechst 33342 nuclear staining score ([1]; HeLa, conc 1 μm): 2 (score 2 relating to strong activity comprising more than 70% of the cells); Hoechst 33342 nuclear staining score ([1]; Jurkat, conc 0.01 μm): 0; Hoechst 33342 nuclear staining score ([1]; Jurkat, conc 0.1 μm): 0; Hoechst 33342 nuclear staining score ([1]; Jurkat, conc 1 μm): 2 (score 2 relating to strong activity comprising more than 70% of the cells); Hoechst 33342 nuclear staining score ([1]; MRC5, conc 0.01 μm): 0; Hoechst 33342 nuclear staining score ([1]; MRC5, conc 0.1 μm): 0; Hoechst 33342 nuclear staining score ([1]; MRC5, conc 1 μm): 1 (1 relating to weak activity comprising less than 70% of the cells); Hoechst 33342 nuclear staining score ([1]; PBLs, conc 0.01 μm): 0; Hoechst 33342 nuclear staining score ([1]; PBLs, conc 0.1 μm): 0; Hoechst 33342 nuclear staining score ([1]; PBLs, conc 1 μm): 0

How did the IC50 (Jurkat) turn out when `Nc1nonc1-c1nc2ccccc2n1CC(=O)c1ccc(-c2ccccc2)cc1` [Example 26] was run?
Its IC50 is greater than 1000 nM.

What about the IC50 (MRC5) of the same compound?
Its IC50 is greater than 1000 nM.

What about the IC50 (HeLa) of the same compound?
The IC50 was greater than 1000 nM.

What about the “Hoechst 33342 nuclear staining score” value ([1]; H460, conc 0.01 μm) of the same compound?
The value was 0.

And the “Hoechst 33342 nuclear staining score” value ([1]; H460, conc 0.1 μm)?
Its value is 0.

And the “Hoechst 33342 nuclear staining score” value ([1]; H460, conc 1 μm)?
Its value is 0.

And the “Hoechst 33342 nuclear staining score” value ([1]; HeLa, conc 0.01 μm)?
Its value is 0.

What about the “Hoechst 33342 nuclear staining score” value ([1]; HeLa, conc 0.1 μm) of the same compound?
Its value is 0.

And the “Hoechst 33342 nuclear staining score” value ([1]; HeLa, conc 1 μm)?
Its value is 0.

What about the “Hoechst 33342 nuclear staining score” value ([1]; Jily, conc 0.01 μm) of the same compound?
The value was 0.

And the “Hoechst 33342 nuclear staining score” value ([1]; Jily, conc 0.1 μm)?
The value was 0.

What about the “Hoechst 33342 nuclear staining score” value ([1]; Jily, conc 1 μm) of the same compound?
Its value is 0.

And the “Hoechst 33342 nuclear staining score” value ([1]; Jurkat, conc 0.01 μm)?
Its value is 0.

And the “Hoechst 33342 nuclear staining score” value ([1]; Jurkat, conc 0.1 μm)?
The value was 0.

What about the “Hoechst 33342 nuclear staining score” value ([1]; Jurkat, conc 1 μm) of the same compound?
The value was 0.

And the “Hoechst 33342 nuclear staining score” value ([1]; MRC5, conc 0.01 μm)?
The value was 0.

What about the “Hoechst 33342 nuclear staining score” value ([1]; MRC5, conc 0.1 μm) of the same compound?
Its value is 0.

And the “Hoechst 33342 nuclear staining score” value ([1]; MRC5, conc 1 μm)?
The value was 0.

And the “Hoechst 33342 nuclear staining score” value ([1]; PBLs, conc 0.01 μm)?
The value was 0.

And the “Hoechst 33342 nuclear staining score” value ([1]; PBLs, conc 0.1 μm)?
Its value is 0.

What about the “Hoechst 33342 nuclear staining score” value ([1]; PBLs, conc 1 μm) of the same compound?
Its value is 0.

For `CON=C(Cn1c(-c2nonc2N)nc2ccccc21)c1ccccc1Cl` (mixture of isomers) [Example 34], which IC50 (Jurkat) is on record?
Its IC50 is greater than 1000 nM.

And the IC50 (MRC5)?
The IC50 was greater than 1000 nM.

And the IC50 (HeLa)?
Its IC50 is greater than 1000 nM.

And the “Hoechst 33342 nuclear staining score” value ([1]; H460, conc 0.01 μm)?
The value was 0.

And the “Hoechst 33342 nuclear staining score” value ([1]; H460, conc 0.1 μm)?
Its value is 0.

What about the “Hoechst 33342 nuclear staining score” value ([1]; H460, conc 1 μm) of the same compound?
Its value is 0.

And the “Hoechst 33342 nuclear staining score” value ([1]; HeLa, conc 0.01 μm)?
Its value is 0.

What about the “Hoechst 33342 nuclear staining score” value ([1]; HeLa, conc 0.1 μm) of the same compound?
The value was 0.

What about the “Hoechst 33342 nuclear staining score” value ([1]; HeLa, conc 1 μm) of the same compound?
The value was 0.

What about the “Hoechst 33342 nuclear staining score” value ([1]; Jily, conc 0.01 μm) of the same compound?
Its value is 0.

And the “Hoechst 33342 nuclear staining score” value ([1]; Jily, conc 0.1 μm)?
Its value is 0.

And the “Hoechst 33342 nuclear staining score” value ([1]; Jily, conc 1 μm)?
The value was 0.

And the “Hoechst 33342 nuclear staining score” value ([1]; Jurkat, conc 0.01 μm)?
The value was 0.

And the “Hoechst 33342 nuclear staining score” value ([1]; Jurkat, conc 0.1 μm)?
The value was 0.

What about the “Hoechst 33342 nuclear staining score” value ([1]; Jurkat, conc 1 μm) of the same compound?
The value was 0.

What about the “Hoechst 33342 nuclear staining score” value ([1]; MRC5, conc 0.01 μm) of the same compound?
The value was 0.

And the “Hoechst 33342 nuclear staining score” value ([1]; MRC5, conc 0.1 μm)?
The value was 0.

And the “Hoechst 33342 nuclear staining score” value ([1]; MRC5, conc 1 μm)?
Its value is 0.

And the “Hoechst 33342 nuclear staining score” value ([1]; PBLs, conc 0.01 μm)?
Its value is 0.

What about the “Hoechst 33342 nuclear staining score” value ([1]; PBLs, conc 0.1 μm) of the same compound?
The value was 0.

And the “Hoechst 33342 nuclear staining score” value ([1]; PBLs, conc 1 μm)?
The value was 0.

Which results are given for `CCN(CC)c1ccc(C(=O)Cn2c(-c3nonc3N)nc3ccccc32)cc1` [Example 39]?
IC50 (Jurkat): > 1000 nM; IC50 (MRC5): > 1000 nM; IC50 (HeLa): > 1000 nM; Hoechst 33342 nuclear staining score ([1]; H460, conc 0.01 μm): 0; Hoechst 33342 nuclear staining score ([1]; H460, conc 0.1 μm): 0; Hoechst 33342 nuclear staining score ([1]; H460, conc 1 μm): 0; Hoechst 33342 nuclear staining score ([1]; HeLa, conc 0.01 μm): 0; Hoechst 33342 nuclear staining score ([1]; HeLa, conc 0.1 μm): 0; Hoechst 33342 nuclear staining score ([1]; HeLa, conc 1 μm): 0; Hoechst 33342 nuclear staining score ([1]; Jily, conc 0.01 μm): 0; Hoechst 33342 nuclear staining score ([1]; Jily, conc 0.1 μm): 0; Hoechst 33342 nuclear staining score ([1]; Jily, conc 1 μm): 0; Hoechst 33342 nuclear staining score ([1]; Jurkat, conc 0.01 μm): 0; Hoechst 33342 nuclear staining score ([1]; Jurkat, conc 0.1 μm): 0; Hoechst 33342 nuclear staining score ([1]; Jurkat, conc 1 μm): 0; Hoechst 33342 nuclear staining score ([1]; MRC5, conc 0.01 μm): 0; Hoechst 33342 nuclear staining score ([1]; MRC5, conc 0.1 μm): 0; Hoechst 33342 nuclear staining score ([1]; MRC5, conc 1 μm): 0; Hoechst 33342 nuclear staining score ([1]; PBLs, conc 0.01 μm): 0; Hoechst 33342 nuclear staining score ([1]; PBLs, conc 0.1 μm): 0; Hoechst 33342 nuclear staining score ([1]; PBLs, conc 1 μm): 0
